Here are results for 16 molecules from patent US20120040977A1, “INHIBITORS OF HCV NS5A” (PRESIDIO PHARMACEUTICALS, INC., priority 2009, published 2012).

Structures are written as SMILES. pEC50: −log10 of the molar value.

This experiment deals with HCV genotype 1b replicon. The experiment is described as follows: HCV replicon assay (HCV 1b_Huh-Luc/Neo-ET cell line, luciferase readout). The class given is cell-based. Particulars: Hepatitis C virus; bicistronic genotype 1b replicon in Huh 7 cells, 72 h incubation, luciferase enzyme activity; read-out: Inhibition of HCV genotype 1b. The method in brief:
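Huh 7 cells carrying a bicistronic genotype 1b luciferase replicon treated with compound in triplicate for 72 h. Luciferase activity expressed as percent of untreated control; EC50 from four-parameter curve fit, determined several times.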
Take `COC(=O)N[C@@H](C)C(=O)N1CCC[C@H]1C(=O)Nc1ccc(-c2ccc(-c3cnc([C@@H]4CCCN4C(=O)[C@H](C)NC(=O)OC)[nH]3)cc2)cc1` [Compound 108]: the pEC50 is 6.00 to 8.00. The same measure for `COC(=O)N[C@H](C(=O)N1CCC[C@H]1C(=O)Nc1ccc(-c2ccc(-c3cnc([C@@H]4CCCN4C(=O)[C@@H](NC(=O)OC)C(C)C)[nH]3)cc2)cc1)C(C)C` [Compound 109]: 6.00 to 8.00; for `COC(=O)N[C@H](C(=O)N1CCC[C@H]1C(=O)Nc1ccc(-c2ccc(-c3cnc([C@@H]4CCCN4C(=O)[C@@H](NC(=O)OC)C4CCOCC4)[nH]3)cc2)cc1)C1CCOCC1` [Compound 110]: 8.00 to 9.00; for `COC(=O)N[C@@H](C(=O)N1CCC[C@H]1C(=O)NCc1ccc(-c2ccc3nc([C@@H]4CCCN4C(=O)[C@H](NC(=O)OC)c4ccccc4)[nH]c3c2)cc1)c1ccccc1` [Compound 111]: above 9.00. The same measure for `COC(=O)N[C@H](C(=O)N1CCC[C@H]1C(=O)Nc1ccc(-c2ccc3c(c2)CCc2nc([C@@H]4CCCN4C(=O)[C@@H](NC(=O)OC)C(C)C)[nH]c2-3)cc1)C(C)C` [Compound 112]: 8.00 to 9.00; for `COC(=O)N[C@H](C(=O)N1CCC[C@H]1CNC(=O)c1ccc(-c2ccc3c(ccc4nc([C@@H]5CCCN5C(=O)[C@@H](NC(=O)OC)C(C)C)[nH]c43)c2)cc1)C(C)C` [Compound 113]: above 9.00.

`COC(=O)N[C@H](C(=O)N1CCC[C@H]1C(=O)Nc1ccc(-c2ccc3c(ccc4nc([C@@H]5CCCN5C(=O)[C@@H](NC(=O)OC)C(C)C)[nH]c43)c2)cc1)C(C)C` [Compound 114]: the pEC50 was above 9.00.

Take `COC(=O)N[C@H](C(=O)N1CCC[C@H]1CNC(=O)c1ccc(-c2ccc3nc([C@@H]4CCCN4C(=O)[C@@H](NC(=O)OC)C(C)C)[nH]c3c2)cn1)C(C)C` [Compound 115]: the pEC50 was 6.00 to 8.00. The same measure for `COC(=O)N[C@H](C(=O)N1CCC[C@H]1C(=O)NCc1ccc(-c2ccc(-c3cnc([C@@H]4CCCN4C(=O)[C@@H](NC(=O)OC)C(C)C)[nH]3)cn2)cc1)C(C)C` [Compound 116]: 6.00 to 8.00; for `COC(=O)N[C@H](C(=O)N1CCC[C@H]1c1nc2c([nH]1)-c1ccc(-c3ccc(NC(=O)[C@@H]4CCCN4C(=O)[C@H](NC(=O)OC)c4ccccc4)cc3)cc1CC2)C(C)C` [Compound 117]: above 9.00; for `COC(=O)N[C@@H](C(=O)N1CCC[C@H]1C(=O)NCc1ccc(-c2ccc(-c3cnc([C@@H]4CCCN4C(=O)[C@H](NC(=O)OC)c4ccccc4)[nH]3)cn2)cc1)c1ccccc1` [Compound 118]: above 9.00. The same measure for `COC(=O)N[C@H](C(=O)N1CCC[C@H]1C(=O)NCc1ccc(-c2ccc(-c3cnc([C@@H]4CCCN4C(=O)[C@@H](NC(=O)OC)C(C)C)[nH]3)cc2)cn1)C(C)C` [Compound 119]: 6.00 to 8.00; for `COC(=O)N[C@@H](C(=O)N1CCC[C@H]1C(=O)NCc1ccc(-c2ccc(-c3cnc([C@@H]4CCCN4C(=O)[C@H](NC(=O)OC)c4ccccc4)[nH]3)cc2)cn1)c1ccccc1` [Compound 120]: above 9.00. The same measure for `COC(=O)N[C@H](C(=O)N1CCC[C@H]1C(=O)NCc1ccc(-c2ccc3nc([C@@H]4CCCN4C(=O)[C@@H](NC(=O)OC)C(C)C)[nH]c3c2)cn1)C(C)C` [Compound 121]: 6.00 to 8.00; for `COC(=O)N[C@H](C(=O)N1CCC[C@H]1CNC(=O)c1ccc(-c2ccc(-c3cnc([C@@H]4CCCN4C(=O)[C@@H](NC(=O)OC)[C@@H](C)OC)[nH]3)cc2)cc1)[C@@H](C)OC` [Compound 122]: above 9.00. With `COC(=O)N[C@H](C(=O)N1CCC[C@H]1CNC(=O)c1ccc(-c2ccc(-c3cnc([C@@H]4CCCN4C(=O)[C@@H](NC(=O)OC)C4CCOCC4)[nH]3)cc2)cc1)C1CCOCC1` [Compound 123], the pEC50 was 8.00 to 9.00.
